Source: the NIST ThermoML archive (doi:10.1021/je1002829)

Test: xn = mol fraction of the nth substance listed
Conditions: for mass density: 101 kPa, Liquid, Pycnometric method

CCCCCC(=O)O [hexanoic acid] + O
Conditions	mass density, 293.15 K [kg/m3]	mass density, 298.15 K [kg/m3]	mass density, 303.15 K [kg/m3]	mass density, 308.15 K [kg/m3]	surface tension liquid-gas, 293.15 K [mN/m]	surface tension liquid-gas, 298.15 K [mN/m]	surface tension liquid-gas, 303.15 K [mN/m]	surface tension liquid-gas, 308.15 K [mN/m]
x1 = 8e-05	–	–	–	–	63.26	62.69	62.67	62.16
x1 = 0.00015	998.24	997.08	995.67	994.07	–	–	–	–
x1 = 0.00016	–	–	–	–	56.6	56.02	56.09	56.02
x1 = 0.00023	–	–	–	–	52.29	51.8	51.81	51.94
x1 = 0.00032	–	–	–	–	48.25	47.98	47.93	48.06
x1 = 0.00037	–	–	–	–	46.55	46.17	45.98	46.29
x1 = 0.00043	998.28	997.12	995.68	994.07	–	–	–	–
x1 = 0.00046	–	–	–	–	44.03	43.54	43.22	43.67
x1 = 0.00051	–	–	–	–	42.83	42.62	42.44	42.6
x1 = 0.0006	998.31	997.14	995.72	994.09	–	–	–	–
x1 = 0.00062	–	–	–	–	40.57	40.6	40.57	40.45
x1 = 0.00069	–	–	–	–	39.19	39.02	38.98	38.89
x1 = 0.00077	–	–	–	–	37.72	37.36	37.36	37.2
x1 = 0.00084	–	–	–	–	36.64	36.28	36.21	36.07
x1 = 0.00091	–	–	–	–	35.66	35.23	35.04	34.96
x1 = 0.00106	998.36	997.18	995.77	994.1	–	–	–	–
x1 = 0.0011	–	–	–	–	33.79	33.17	32.82	32.46
x1 = 0.00115	–	–	–	–	33.55	32.94	32.57	32.11
x1 = 0.00143	998.42	997.22	995.77	994.12	–	–	–	–
x1 = 0.00148	998.43	997.23	995.79	994.12	–	–	–	–
x1 = 0.0018	998.47	997.25	995.81	994.13	–	–	–	–
x1 = 0.00195	998.49	997.28	995.82	994.15	–	–	–	–
x1 = 0.00205	998.5	997.29	995.83	994.14	–	–	–	–
x1 = 0.00222	998.52	997.29	995.83	994.16	–	–	–	–
x1 = 0.00228	998.54	997.31	995.84	994.16	–	–	–	–
x1 = 0.0025	998.56	997.33	995.86	994.18	–	–	–	–
x1 = 0.00271	998.58	997.35	995.88	994.19	–	–	–	–
x1 = 0.00289	998.62	997.37	995.89	994.19	–	–	–	–
x1 = 0.00305	998.63	997.4	995.91	994.21	–	–	–	–
x1 = 0.0035	998.69	997.43	995.94	994.23	–	–	–	–

CCCCC(=O)O [pentanoic acid] + O
Conditions	mass density, 293.15 K [kg/m3]	mass density, 298.15 K [kg/m3]	mass density, 303.15 K [kg/m3]	mass density, 308.15 K [kg/m3]	surface tension liquid-gas, 293.15 K [mN/m]	surface tension liquid-gas, 298.15 K [mN/m]	surface tension liquid-gas, 303.15 K [mN/m]	surface tension liquid-gas, 308.15 K [mN/m]
x1 = 0.00015	998.24	997.08	995.67	994.07	–	–	–	–
x1 = 0.00016	–	–	–	–	63.92	64.63	63.6	63.01
x1 = 0.00043	998.28	997.12	995.68	994.07	–	–	–	–
x1 = 0.00048	–	–	–	–	57.45	57.4	56.82	56.37
x1 = 0.00056	–	–	–	–	56.19	56.09	55.49	55.07
x1 = 0.0006	998.31	997.14	995.72	994.09	–	–	–	–
x1 = 0.00083	–	–	–	–	52.45	52.12	51.63	51.27
x1 = 0.00099	–	–	–	–	50.54	50.05	49.71	49.38
x1 = 0.00106	998.36	997.18	995.77	994.1	–	–	–	–
x1 = 0.00121	–	–	–	–	48.25	47.66	47.43	47.13
x1 = 0.00143	998.42	997.22	995.77	994.12	–	–	–	–
x1 = 0.00148	998.43	997.23	995.79	994.12	–	–	–	–
x1 = 0.0015	–	–	–	–	45.82	45.32	44.93	44.64
x1 = 0.00173	–	–	–	–	44.26	43.88	43.28	43
x1 = 0.0018	998.47	997.25	995.81	994.13	–	–	–	–
x1 = 0.00195	998.49	997.28	995.82	994.15	–	–	–	–
x1 = 0.00196	–	–	–	–	42.94	42.57	41.86	41.59
x1 = 0.00205	998.5	997.29	995.83	994.14	–	–	–	–
x1 = 0.00219	–	–	–	–	41.78	41.26	40.63	40.36
x1 = 0.00222	998.52	997.29	995.83	994.16	–	–	–	–
x1 = 0.00228	998.54	997.31	995.84	994.16	–	–	–	–
x1 = 0.0025	998.56	997.33	995.86	994.18	–	–	–	–
x1 = 0.00259	–	–	–	–	39.97	39.16	38.8	38.54
x1 = 0.00271	998.58	997.35	995.88	994.19	–	–	–	–
x1 = 0.00283	–	–	–	–	38.97	38.18	37.81	37.57
x1 = 0.00289	998.62	997.37	995.89	994.19	–	–	–	–
x1 = 0.00299	–	–	–	–	38.32	37.6	37.18	36.94
x1 = 0.00305	998.63	997.4	995.91	994.21	–	–	–	–
x1 = 0.00326	–	–	–	–	37.25	36.51	36.1	35.9
x1 = 0.00349	–	–	–	–	36.38	35.61	35.15	34.97
x1 = 0.0035	998.69	997.43	995.94	994.23	–	–	–	–

CCC(=O)O [propanoic acid] + O
Conditions	mass density, 293.15 K [kg/m3]	mass density, 298.15 K [kg/m3]	mass density, 303.15 K [kg/m3]	mass density, 308.15 K [kg/m3]	surface tension liquid-gas, 293.15 K [mN/m]	surface tension liquid-gas, 298.15 K [mN/m]	surface tension liquid-gas, 303.15 K [mN/m]	surface tension liquid-gas, 308.15 K [mN/m]
x1 = 0.00861	–	–	–	–	53.75	52.45	52.18	51.48
x1 = 0.01457	1000.94	999.46	997.79	996.38	49.8	49.01	48.47	47.97
x1 = 0.02075	–	–	–	–	46.86	46.29	45.79	45.31
x1 = 0.03268	1004.5	1002.95	1001.28	998.86	42.79	42.3	41.69	41.23
x1 = 0.0455	–	–	–	–	39.75	39.16	38.43	37.89
x1 = 0.05436	1008.59	1006.51	1004.63	1002.08	38.2	37.55	36.83	36.18
x1 = 0.06602	–	–	–	–	36.71	36.04	35.36	34.61
x1 = 0.0747	–	–	–	–	35.93	35.28	34.6	33.85
x1 = 0.0869	1014.63	1011.95	1009.33	1006.91	35.19	34.59	33.85	33.19
x1 = 0.1019	1017.46	1014.23	1011.41	1008.86	–	–	–	–
x1 = 0.1095	–	–	–	–	34.48	33.94	33.04	32.62
x1 = 0.128	1020.75	1017.92	1014.77	1011.7	34.1	33.59	32.68	32.35
x1 = 0.1494	–	–	–	–	33.68	33.18	32.43	32
x1 = 0.171	1025.1	1021.28	1017.58	1013.89	33.22	32.71	32.27	31.51
x1 = 0.1823	–	–	–	–	32.96	32.45	32.21	31.21
x1 = 0.1947	1025.78	1022.21	1018.26	1014.09	–	–	–	–
x1 = 0.2318	1026.54	1022.48	1018.39	1014.03	–	–	–	–
x1 = 0.2485	1026.51	1022.21	1018.12	1013.78	–	–	–	–
x1 = 0.2755	1026.19	1021.74	1017.72	1013.1	–	–	–	–
x1 = 0.3043	1025.42	1021.28	1017.05	1012.52	–	–	–	–
x1 = 0.333	1024.97	1020.74	1016.65	1011.57	–	–	–	–
x1 = 0.3701	1024.09	1019.95	1015.5	1010.29	–	–	–	–
x1 = 0.4001	1023.22	1018.88	1014.2	1009.37	–	–	–	–
